Data: US6384058B1, “2,4,6-trisubstituted pryridines with estrogenic activity and methods for the solid phase synthesis thereof” (American Home Products Corporation, priority 1997, dated 2002)

Columns and labels:
human estrogen receptor = molecular target: T1, human estrogen receptor (Homo sapiens, UniProt P03372); test: Estrogen Receptor Assay: 2×VIT ERE Transfection Assay (luciferase reporter in CHO cells); format: cell-based; conditions: 1 μM compound alone, 24 h, CHO cells stably transfected with human estrogen receptor, luciferase normalised to B-galactosidase, n=8
T1 construct: expressed in transfected cells; host or cells: Chinese Hamster Ovary (CHO) cells, stably transfected
T1 sequence (P03372 1-595): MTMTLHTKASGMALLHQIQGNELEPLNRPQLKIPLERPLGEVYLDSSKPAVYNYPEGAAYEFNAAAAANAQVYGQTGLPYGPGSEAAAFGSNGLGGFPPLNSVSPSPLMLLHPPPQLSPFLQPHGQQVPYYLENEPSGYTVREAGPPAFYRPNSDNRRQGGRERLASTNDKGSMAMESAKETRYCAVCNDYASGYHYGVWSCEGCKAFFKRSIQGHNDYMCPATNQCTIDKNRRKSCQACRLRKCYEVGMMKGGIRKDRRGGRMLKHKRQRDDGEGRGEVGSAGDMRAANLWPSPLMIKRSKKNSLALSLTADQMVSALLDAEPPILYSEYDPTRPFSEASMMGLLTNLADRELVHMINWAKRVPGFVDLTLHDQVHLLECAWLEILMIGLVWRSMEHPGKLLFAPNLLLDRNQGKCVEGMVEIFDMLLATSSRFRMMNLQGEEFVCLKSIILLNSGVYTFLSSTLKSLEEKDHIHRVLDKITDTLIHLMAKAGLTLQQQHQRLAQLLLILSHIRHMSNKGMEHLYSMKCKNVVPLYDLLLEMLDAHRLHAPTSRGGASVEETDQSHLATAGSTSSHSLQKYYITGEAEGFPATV
Experimental: Enhancement of luciferase gene expression in this model is dependent upon estrogen receptor (ER) interaction with a vitellogenin gene estrogen responsive element (ERE) capable of enhancing basal promoter activity. This is a sensitive and rapid methodology to assess estrogenic/antiestrogenic potency of compounds.
48 h prior to treatment the growth medium is replaced with DMEM lacking phenol red+10% dextran coated charcoal stripped FBS (treatment medium). Cells are plated at a density of 5000 cells/well in 96-well plates containing 200 μL of medium/well.
Calcium Phosphate Transfection: Reporter DNA (Promega plasmid pGL2 containing two tandem copies of the vitellogenin ERE in front of the minimal thymidine kinase promoter driving the luciferase gene) is combined with the B-galactosidase expression plasmid pCH110 (Pharmacia) and carrier DNA (pTZ18U) in the following ratio: 10 μg of reporter DNA, 5 μg of pCH110 DNA, 5 μg of pTZ18U, and 20 μg of DNA/1 mL of transfection solution. […] 20 μL of this mixture is added to each well of cells and remains on the cells for 16 h. […] Each treatment condition is performed on 8 wells (n=8) which are incubated for 24 h prior to luciferase assay.
Luciferase Assay: After 24 h exposure to compounds, the media is removed and each well is washed 2× with 125 μL of PBS lacking Mg++ and Ca++. After removing the PBS, 25 μL of Promega lysis buffer is added to each well and allowed to stand at room temperature for 15 min, followed by 15 min at −80 deg. C. and 15 min at 37 deg. C. 20 μL of lysate is tranferred to an opaque 96-well plate for luciferase activity evaluation and the remaining lysate (5 μL) is used for B-galactosidase activity evaluation (normalize transfection). The luciferan substrate (Promega) added is 100 μL aliquots to each well automatically by the luminometer and the light produced (relative light units) is read 10 seconds after addition. The data is logged and automatically sent to a JMP statistical program for analysis. A hard copy printout is also produced at the time of the assay.
B-galactosidase Assay: To the remaining 5 μL of lysate 45 μL of PBS is added. 50 μl of Promega B-galactosidase 2×assay buffer is added, mixed well and incubated at 37 deg. C. for 1 h. A plate containing a standard curve (0.1 to 1.5 milliunits in triplicate) is set up for each experimental run. The plates are analyzed on a Molecular Devices spectrophotometric plate reader at 410 nm. The optical densities for the unknowns are converted to milliunits of activity by mathematical extrapolation from the standard curve. Analysis of Results: The luciferase data is generated as relative light units (RLUs) accumulated during a 10 second measurement and is automatically transferred to a JMP (SAS Inc) file where background RLUs are subtracted. The B-galactosidase values are automatically imported into the file and these values are divided into the RLUs to normalize the data. The mean and standard deviation is determined from a n=8 for each treatment.

Row | Estrogenic activity at 1 μM (% of activity of 1 nM 17B-estradiol) (human estrogen receptor) [%] | melting point [°C] | Compound
1 | 10 | 147 to 148 | Oc1ccccc1-c1cc(-c2ccc(F)c(F)c2)cc(-c2ccco2)n1 [Example 3, 2-[4-(3,4-Difluoro-phenyl)-6-furan-2-yl-pyridin-2-yl]-phenol]
2 |  | 187 to 188 | Oc1ccc(F)cc1-c1cc(-c2ccc(-c3ccccc3)cc2)cc(-c2ccc3ccccc3c2)n1 [Example 6, 2-(4-Biphenyl-4-yl-6-naphthalen-2-yl-pyridin-2-yl)-4-fluoro-phenol]
3 |  | 174 to 175 | Oc1cccc(-c2cc(-c3ccc(-c4ccccc4)cc3)cc(-c3ccc4ccccc4c3)n2)c1 [Example 9, 3-(4-Biphenyl-4-yl-6-naphthalen-2-yl-pyridin-2-yl)-phenol]
4 |  | 120 to 121 | Oc1ccccc1-c1cc(-c2ccc3c(c2)OCO3)cc(-c2ccsc2)n1 [Example 5, 2-(4-Benzo[1,3]dioxol-5-yl-6-thiophen-3-yl-pyridin-2-yl)-phenol]
5 | 22 | 195 to 196 | Oc1ccccc1-c1cc(-c2ccc3c(c2)OCO3)cc(-c2ccc3ccccc3c2)n1 [Example 4, 2-(4-Benzo[1,3]dioxol-5-yl-6-naphthalen-2-yl-pyridin-2-yl)-phenol]
6 | 36 |  | Oc1cccc(-c2cc(C3CCCCC3)cc(-c3ccco3)n2)c1 [Example 10, 3-(4-Cyclohexyl-6-furan-2-yl-pyridin-2-yl)-phenol]
7 | 6 |  | Oc1ccc(F)cc1-c1cc(-c2ccc(-c3ccccc3)cc2)cc(-c2ccncc2)n1 [Example 7, 2-(4-Biphenyl-4-yl-[2,4′]bipyridinyl-6-yl)-4-fluoro-phenol]
8 | 14 | 146 to 148 | Oc1ccccc1-c1cc(-c2ccc(F)c(F)c2)cc(-c2ccc(Cl)cc2)n1 [Example 1, 2-[6-(4-Chloro-phenyl)-4-(3,4-difluoro-phenyl)-pyridin-2-yl]-phenol]
9 |  | 165 to 167 | Oc1ccccc1-c1cc(-c2ccc(F)c(F)c2)cc(-c2ccc3ccccc3c2)n1 [Example 2, 2-[4-(3,4-Difluoro-phenyl)-6-naphthalen-2-yl-pyridin-2-yl]-phenol]
